# Data from US8569378B2, “p27 protein inducer” (Chugai Seiyaku Kabushiki Kaisha, priority 2007, dated 2013).
# Tested on: p27 protein
# Test: Quantification of p27 protein by ELISA (p27 protein-inducing activity, EC50)
# Assay type: cell-based, human
# Settings: NCI-H460 cells, 48 hours, p27 sandwich ELISA; Table 1-1
# Experimental: The p27 protein-inducing activities of the compounds or salts listed in Tables 1-1, 1-2 and 2 below were measured as follows.
# Preparation of Cell Lysate:
# NCI-H460 human non-small cell lung cancer cells (ATCC HTB-177) were plated in 6-well plates at 2×10^5 cells/well and incubated overnight. Then, the test substance was added to the medium to a final concentration of 10000 nmol/L, 3000 nmol/L, 100 nmol/L, 30 nmol/L, 10 nmol/L, 3 nmol/L, 1 nmol/L, 0.3 nmol/L, 0.1 nmol/L, 0.03 nmol/L or 0.01 nmol/L and the cells were incubated at 37° C. in 5% CO2 for 48 hours. 150 μL of Cell Lysis Buffer (catalog no. 9803, Cell Signaling) which had been diluted to 1-fold concentration (1 mM PMSF was added immediately before use) was added, and the mixture was allowed to stand on ice for 10 minutes. The Cell Lysis Buffer in which cells were lysed was collected together with cells with a scraper and transferred to a new tube. It was centrifuged at 15000 rpm for 10 minutes at 4° C. and the supernatant was then transferred to a new tube.
# Quantification by Sandwich ELISA:
# Anti-p27 monoclonal antibody (catalog no. 71-9600, Zymed) was diluted to 5 μg/mL in 50 mM carbonate coating buffer (0.4 g/L NaCO3, 0.73 g/L NaHCO3 and 0.04 g/L NaN3 in distilled water), and it was then added at 50 μL/well and allowed to stand overnight at 4° C. to bind the antibody. After washing three times with PBS, 200 μL of blocking solution (0.2% I-Block in PBS) was added to each well. After 1 hour of incubation at room temperature, washing with PBS-T (0.05% Tween 20 in PBS) was performed three times. The sample and recombinant p27 protein standard were serially diluted in Cell Lysis Buffer (catalog no. 9803, Cell Signaling) which had been diluted to 1-fold concentration (1 mM PMSF was added immediately before use), and it was then added at 100 μL/well. After 1 hour of incubation at room temperature, washing with 200 μL of PBS-T was performed three times. HRP-labeled anti-p27 antibody (product no. 610243, BD Transdution Laboratories) was diluted 1:2500 (i.e. to 0.1 μg/mL) in 0.2% I-Block/0.05% PBS-T, and it was then added at 100 μL/well. After 1 hour of incubation at room temperature, washing with 200 μL of PBS-T was performed three times. Chromogenic substrate solution (TMB One Solution, catalog no. G7431, Promega) was added at 100 μL/well and allowed to develop a color reaction at room temperature. After stopping the reaction with 50 μL of 1N H2SO4, the absorbance at 450 nm was measured.
# Calculation of EC50 Values:
# A standard response curve was generated by plotting the amount of p27 protein against the concentration of the test substance. The basal level of response was defined as 0%, while the plateau level where the induction of p27 protein had been maximized was defined as 100%. Finally, the test substance concentration at which 50% induction was achieved was calculated, and it was defined as EC50.
row,SMILES,EC50 [nM]
1,"CNS(=O)(=O)Nc1cccc(Cc2c(CF)c3cc(Cl)c(OC(=O)N(C)C)cc3oc2=O)c1 [Compound 1j-1-3-2F, Dimethylcarbamic acid 6-chloro-4-fluoromethyl-3-{3-(methylaminosulfonyl)aminobenzyl}-2-oxo-2H-1-benzopyran-7-yl ester]",31
2,"Cc1c(Cc2cccc(NS(=O)(=O)N(C)C)c2)c(=O)oc2cc(OC(=O)N(C)C)c(Cl)cc12 [Compound 1j-1-3-3, Dimethylcarbamic acid 6-chloro-4-methyl-3-{3-(dimethylaminosulfonyl)aminobenzyl}-2-oxo-2H-1-benzopyran-7-yl ester]",74
3,"Cc1c(Cc2cccc(NS(N)(=O)=O)c2F)c(=O)oc2cc(OC(=O)N(C)C)ccc12 [Compound 1j-1-4-1, Dimethylcarbamic acid 3-(3-aminosulfonylamino-2-fluoro-benzyl)-4-methyl-2-oxo-2H-1-benzopyran-7-yl ester]",180
4,"CNS(=O)(=O)Nc1cccc(Cc2c(C)c3ccc(OC(=O)N(C)C)cc3oc2=O)c1F [Compound 1j-1-4-2, Dimethylcarbamic acid 3-(3-methylaminosulfonylamino-2-fluoro-benzyl)-4-methyl-2-oxo-2H-1-benzopyran-7-yl ester]",78
5,"CNS(=O)(=O)Nc1cccc(Cc2c(CF)c3ccc(OC(=O)N(C)C)cc3oc2=O)c1F [Compound 1j-1-4-2F, Dimethylcarbamic acid 3-(3-methylaminosulfonylamino-2-fluoro-benzyl)-4-fluoromethyl-2-oxo-2H-1-benzopyran-7-yl ester]",60
6,"CNS(=O)(=O)Nc1cccc(Cc2c(C)c3cc(F)c(OC(=O)N(C)C)cc3oc2=O)c1F [Compound 1j-1-5-2, Dimethylcarbamic acid 6-fluoro-4-methyl-3-{2-fluoro-3-(methylaminosulfonyl)aminobenzyl}-2-oxo-2H-1-benzopyran-7-yl ester]",210
7,"Cc1c(Cc2cccc(NS(N)(=O)=O)c2)c(=O)oc2cc(OC(=O)N(C)C)c(I)cc12 [Compound 1j-1-7-1, Dimethylcarbamic acid 3-{3-(aminosulfonyl)aminobenzyl}-6-iodo-4-methyl-2-oxo-2H-1-benzopyran-7-yl ester]",160
8,"CNS(=O)(=O)Nc1cccc(Cc2c(C)c3cc(I)c(OC(=O)N(C)C)cc3oc2=O)c1 [Compound 1j-1-7-2, Dimethylcarbamic acid 6-iodo-4-methyl-3-{3-(methylaminosulfonyl)aminobenzyl}-2-oxo-2H-1-benzopyran-7-yl ester]",27
9,"CNS(=O)(=O)Nc1cccc(Cc2c(C)c3cc(C)c(OC(=O)N(C)C)cc3oc2=O)c1 [Compound 1j-1-8-2, Dimethylcarbamic acid 6-methyl-4-methyl-3-{3-(methylaminosulfonyl)aminobenzyl}-2-oxo-2H-1-benzopyran-7-yl ester]",240
10,"CNS(=O)(=O)Nc1cccc(Cc2c(C)c3cc(C#N)c(OC(=O)N(C)C)cc3oc2=O)c1 [Compound 1j-1-9-2, Dimethylcarbamic acid 6-cyano-4-methyl-3-{3-(methylaminosulfonyl)aminobenzyl}-2-oxo-2H-1-benzopyran-7-yl ester]",4800
11,"Cc1c(Cc2cccc(NS(=O)(=O)NCCC#N)c2)c(=O)oc2cc(OC(=O)N(C)C)c(Cl)cc12 [Compound 1j-1-21-2, Dimethylcarbamic acid 3-(3-(N-(2-cyanoethyl)sulfamoyl)aminobenzyl)-6-chloro-4-methyl-2-oxo-2H-1-benzopyran-7-yl ester]",150
12,"COCCNS(=O)(=O)Nc1cccc(Cc2c(C)c3cc(Cl)c(OC(=O)N(C)C)cc3oc2=O)c1 [Compound 1j-1-23-2, Dimethylcarbamic acid 3-(3-(N-(2-methoxyethyl)sulfamoyl)aminobenzyl)-6-chloro-4-methyl-2-oxo-2H-1-benzopyran-7-yl ester]",220

# Same assay, conditions: NCI-H460 cells, 48 hours, p27 sandwich ELISA; Table 1-2
row,EC50 [nM],SMILES
1,220,"CNS(=O)(=O)Nc1nccc(Cc2c(C)c3cc(F)c(Oc4ncccn4)cc3oc2=O)c1F [Compound 1j-2-17-2, 3-{2-(methylaminosulfonyl)amino-3-fluoropyridin-4-ylmethyl}-4-methyl-6-fluoro-7-(pyrimidin-2-yloxy)-2-oxo-2H-1-benzopyran]"
2,43,"CNS(=O)(=O)Nc1nccc(Cc2c(C)c3cc(Cl)c(Oc4ncccn4)cc3oc2=O)c1F [Compound 1j-2-18-2, 3-{2-(Methylaminosulfonyl)amino-3-fluoropyridin-4-ylmethyl}-4-methyl-6-chloro-7-(pyrimidin-2-yloxy)-2-oxo-2H-1-benzopyran]"
3,160,"CNS(=O)(=O)Nc1nccc(Cc2c(C)c3cc(C)c(Oc4ncccn4)cc3oc2=O)c1F [Compound 1j-2-19-2, 3-{2-(Methylaminosulfonyl)amino-3-fluoropyridin-4-ylmethyl}-4-methyl-6-methyl-7-(pyrimidin-2-yloxy)-2-oxo-2H-1-benzopyran]"
4,48,"CCc1c(Cc2ccnc(NS(=O)(=O)NC)c2F)c(=O)oc2cc(Oc3ncccn3)c(C)cc12 [Compound 1j-2-19-2Me, 3-{2-(Methylaminosulfonyl)amino-3-fluoropyridin-4-ylmethyl}-4-ethyl-6-methyl-7-(pyrimidin-2-yloxy)-2-oxo-2H-1-benzopyran]"
5,458,"CNS(=O)(=O)Nc1cc(Cc2c(C)c3cc(Cl)c(Oc4nccs4)cc3oc2=O)ccn1 [Compound 1j-3-12-2, 3-{2-(Methylaminosulfonyl)aminopyridin-4-ylmethyl}-4-methyl-6-chloro-7-(thiazol-2-yloxy)-2-oxo-2H-1-benzopyran]"
6,19,"CNS(=O)(=O)Nc1nccc(Cc2c(C)c3cc(C)c(Oc4nccs4)cc3oc2=O)c1F [Compound 1j-3-19-2, 3-{2-(Methylaminosulfonyl)amino-3-fluoropyridin-4-ylmethyl}-4-methyl-6-methyl-7-(thiazol-2-yloxy)-2-oxo-2H-1-benzopyran]"

row,SMILES,EC50 [nM]
1,"Cc1c(Cc2ccccc2)c(=O)oc2cc(OC(=O)N(C)C)c(Cl)cc12 [Comp. 2, dimethylcarbamic acid 2-oxo-2H-3-benzyl-4-methyl-6-chloro-1-benzopyran-7-yl ester, reference compound]",5400
2,"CNS(=O)(=O)Nc1cc(Cc2c(C)c3cc(Cl)c(OC(=O)N(C)C)cc3oc2=O)ccn1 [Compound 1j-1-12-2, Dimethylcarbamic acid 4-methyl-3-{2-(methylaminosulfonyl)aminopyridin-4-ylmethyl}-6-chloro-2-oxo-2H-1-benzopyran-7-yl ester]",1100

# Same assay, conditions: NCI-H460 cells, 48 hours, p27 sandwich ELISA; Table 2
row,EC50 [nM],SMILES
1,1450,"CNS(=O)(=O)Nc1cc(Cc2c(C)c3cc(Cl)c(Oc4ncccn4)cc3oc2=O)ccn1 [Compound 1j-2-12-2, 3-{2-(Methylaminosulfonyl)aminopyridin-4-ylmethyl}-4-methyl-7-(pyrimidin-2-yloxy)-6-chloro-2-oxo-2H-1-benzopyran]"
2,504,"CNS(=O)(=O)Nc1nccc(Cc2c(C)c3ccc(Oc4ncccn4)cc3oc2=O)c1F [Compound 1j-2-16-2, 3-{2-(Methylaminosulfonyl)amino-3-fluoropyridin-4-ylmethyl}-4-methyl-7-(pyrimidin-2-yloxy)-2-oxo-2H-1-benzopyran]"
3,7100,"CNS(=O)(=O)Nc1cccc(Cc2c(C)c3ccc(Oc4nccs4)cc3oc2=O)c1 [Compound 1j-3-1-2, 3-{3-(Methylaminosulfonyl)aminobenzyl}-4-methyl-7-(thiazol-2-yloxy)-2-oxo-2H-1-benzopyran]"
4,540,"CNS(=O)(=O)Nc1cccc(Cc2c(C)c3cc(C)c(Oc4nccs4)cc3oc2=O)c1 [Compound 1j-3-8-2, 3-{3-(Methylaminosulfonyl)aminobenzyl}-4-methyl-7-(thiazol-2-yloxy)-6-methyl-2-oxo-2H-1-benzopyran]"

row,SMILES,EC50 [nM]
1,"CNS(=O)(=O)Nc1cccc(Cc2c(C)c3ccc(OC(=O)N(C)C)cc3oc2=O)n1 [Compound 1j-1-13-2, Dimethylcarbamic acid 4-methyl-3-{6-(methylaminosulfonyl)aminopyridin-2-ylmethyl}-2-oxo-2H-1-benzopyran-7-yl ester]",2500
